We go through three compounds from patent US4801579A, “Novel cystine compounds, their preparation and use” (Bleiberger Bergwerks Union, priority 1986, dated 1989).

Positions of bridges follow the written chain, without caps; N, C: chain ends. Residues, ends and D or L forms follow the SMILES beside them. Chains are numbered I, II in the order given.

The conditions of series [1]: heat treatment (sterilization) of solutions; cited from earlier work.
Series [2] can be described thus: water solubility of the novel cystine compounds. The format is physicochemical. The method, then:
(§1) 0.5 g bis-(acetylglycyl)-L,L-cystine are dissolved in 50 ml distilled water. The pH is adjusted to 6.5 by the addition of a 1N sodium hydrogen carbonate solution and then diluted with distilled water to a volume of 100 ml. Of this solution, an HPLC chromatogram is made immediately. The solution is then heated on a boiling water bath.

The nature of series [3]: Testing of the water solubility and thermal stability of bis-(acetylglycyl)-L,L-cystine (HPLC after heating on boiling water bath). It counts as physicochemical. To be noted: 0.5 g in 100 ml water, pH 6.5, boiling water bath, after 10, 20 and 30 minutes of heating. On the procedure: as §1
The nature of series [4]: heat sterilization stability of the novel cystine compounds. The format is physicochemical. To be noted: for instance heating to 120° C. for 5 minutes. The method, then: So, for instance, infusion solutions are prepared by dissolving the purified peptide and the desired amino acid in distilled water. Mineral salts and other substances may further be added to these solutions. Prior to administration, they must be isotonically adjusted. Up to now, it has not been possible to sterilize such solutions in the usual manner (5 minutes, 120° C., pH 5.5 to 7.5) without the decomposition of the cystine-containing component. The novel peptides according to the invention permit a heat treatment of the above-mentioned infusion solution without the decomposition of the cystine derivative.

For `N[C@@H](CSSC[C@H](N)C(=O)O)C(=O)O` [L,L-cystine], the “resistance to heat treatment / thermal stability” value in series [1] is listed as “stable against heat treatment”. In the case of `N[C@@H](CS)C(=O)O` [L-cysteine], the “resistance to heat treatment / thermal stability” value in series [1] is “not resistant to heat treatment”.

For `CC(=O)NCC(=O)N[C@@H](CSSC[C@H](NC(=O)CNC(C)=O)C(=O)O)C(=O)O` [bis-(acetylglycyl)-L,L-cystine] (I: Ac-Gly-Cys-OH / II: Ac-Gly-Cys-OH; disulfide I:2-II:2), the solubility in water result in series [2] was “well soluble in water”. The “change of HPLC chromatogram after heating” value in series [3] is “does not show any essential changes”. For the same compound, in series [4], the “stability to heat sterilization” value is reported as “stable enough to be heat-sterilizable”.
